Measured values published in ChEMBL document CHEMBL1201862, “PubChem BioAssay data set” (2004).
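In this assay, cells in 96-well plates receive the compound at five concentrations for 48 hours. Endpoints are linearly interpolated between the surrounding concentrations. GI50 = concentration required for 50% inhibition of growth.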 Active and inactive are the calls of the source. No stated cut-off is given here; in the data, active = GI50 up to about 1.1 µM and inactive = higher.

Assays:
Assay in all cases: inhibition of tumour cell growth, NCI panel, 48 h
[1] = tested on: SNB-19
[2] = tested on: UACC-62
[3] = tested on: SK-MEL-2
[4] = tested on: CAKI-1
[5] = tested on: HT-29
[6] = tested on: MDA-N
[7] = tested on: A549
[8] = tested on: SNB-75
[9] = tested on: OVCAR-3
[10] = tested on: A498
[11] = tested on: NCI-H226
[12] = tested on: ACHN
[13] = tested on: BT-549
[14] = tested on: SN12C
[15] = tested on: IGROV-1
[16] = tested on: K562
[17] = tested on: T47D
[18] = tested on: M14
[19] = tested on: SF-268
[20] = tested on: NCI-H522

Measured: GI50

CC(=S)NC1C(Oc2ccc3c(C)cc(=O)oc3c2)OC(CO)C(O)C1O (stereo not drawn)
inactive: [1] > 100 µM | [2] > 100 µM | [3] > 100 µM | [4] > 100 µM | [5] > 100 µM | [6] > 100 µM | [7] > 100 µM | [8] > 100 µM | [9] > 100 µM | [10] > 100 µM | [11] > 100 µM | [12] > 100 µM | [13] > 100 µM | [14] > 100 µM | [15] > 100 µM | [16] > 100 µM | [17] > 100 µM

N/C(CCSCCSCC/C(N)=N\O)=N\O
inactive: [1] > 100 µM | [2] > 100 µM | [18] > 100 µM | [19] > 100 µM | [4] > 100 µM | [5] > 100 µM | [6] > 100 µM | [7] > 100 µM | [8] > 100 µM | [9] > 100 µM | [20] > 100 µM | [11] > 100 µM | [12] > 100 µM | [13] > 100 µM | [14] > 100 µM | [15] > 100 µM | [16] > 100 µM | [17] > 100 µM

CCN(CC)C(=O)N1CN(c2ccccc2)C2(CCN(CCCSc3ccc(F)cc3)CC2)C1=O
inactive: [1] 9.79 µM | [2] > 10 µM | [18] 3.56 µM | [19] 11.1 µM | [3] 7.16 µM | [4] 87.7 µM | [5] 2.85 µM | [6] 6.15 µM | [7] 18.8 µM | [8] 20.6 µM | [9] 5.13 µM | [20] 13.2 µM | [11] 18.9 µM | [12] 3.01 µM | [13] 13.5 µM | [14] 9.18 µM | [16] 8.32 µM | [17] 4.01 µM

COc1ccc(-c2csc(-n3c(-c4ccccc4)nc4c(Br)cc(Br)cc4c3=O)n2)cc1
inactive: [1] 34 µM | [2] 28.5 µM | [18] 29.4 µM | [19] 15.6 µM | [3] 47.2 µM | [4] 35.7 µM | [5] 26.7 µM | [6] 25.4 µM | [7] 25.5 µM | [8] 31.3 µM | [9] 25.2 µM | [10] 15.5 µM | [20] 19.8 µM | [11] 27.7 µM | [12] 25.1 µM | [13] 17.8 µM | [15] 2.92 µM | [16] 20.8 µM

CC1N[B@@-](C)(c2ccc(C(F)(F)F)cc2)OC1c1ccccc1 (stereo partly drawn)
inactive: [1] > 100 µM | [2] > 100 µM | [18] > 100 µM | [19] > 100 µM | [5] 72.1 µM | [6] > 100 µM | [7] > 100 µM | [8] 32.6 µM | [9] 57.8 µM | [10] 58.9 µM | [11] > 100 µM | [12] 36.9 µM | [13] > 100 µM | [14] > 100 µM | [15] > 100 µM | [16] 66.2 µM | [17] > 100 µM
